Experimental data as given in patent US11771685B2, “Compounds for the treatment of neurological or mitochondrial diseases” (MUSC FOUNDATION FOR RESEARCH DEVELOPMENT, priority 2018, dated 2023).

What was measured:
[1] = Rotarod neurotoxicity test in mice; type: in vivo, mouse; settings: 1 hr, 44 mA study
Experimental: Mice or rats were administered the NT-102 compound i.p., one hour was allowed to pass (since the time to peak effect was determined to be about one hour), and then rodents were then placed on the Rotarod to determine if any motor defects would be observed; after the rotarod test, then rodents were administered an electrical stimulation to determine if the dose of NT-102 would protect against (i.e., prevent) the seizures due to the electrical stimulation. In particular, using (i) electrical model to test for seizures in mice and, separately, (ii) in rat 6 Hz 40V model. More specifically, NT-102 was injected (i.p.) in 5% DMSO/95% Miglyol 840 as vehicle. Mice were challenged with 6 Hz 44 mA current to see if seizures would result. […] The Time of Peak Effect (TPE) was observed 1 hour. Additional data is shown below in Table 5. The mice were administered the NT-102 at various doses and placed on the rotarod (i.e., “Rotarod (Tox)”) to test if the mice would fall off as a model of due to the effects of NT-102; for the “Rotarod(Tox)” results, the “NIT” indicates the number of mice that fell off the rotarod (e.g., for Rotarod(Tox) results, if N/T is 0/8, then zero out of eight mice fell off). For the electrical stimulation data (i.e., “6 Hz 44 mA”), an electrical stimulation of 6 Hz 44 mA was administered. […] The 44 mA electrical dosage was used since it is considered to be a model to test for medication-resistant epilepsy.

[2] = test system: 6 Hz electrically-induced seizures in mice; assay: 6 Hz mouse seizure model; type: in vivo; settings: for 6 Hz 32 mA N/T, mice protected / 6 Hz 44 mA N/T, mice protected: 1 hr; for Number of Animals Protected / Effective Dose / Time of Peak Effect: 5% DMSO: 95% Neobee; for protection against seizures, preliminary testing: toxicity by Rotarod assay and behavioral observations
Experimental: In particular, using (i) electrical model to test for seizures in mice and, separately, (ii) in rat 6 Hz 40V model. More specifically, NT-102 was injected (i.p.) in 5% DMSO/95% Miglyol 840 as vehicle. […] […] The mice were administered the NT-102 at various doses and placed on the rotarod (i.e., “Rotarod (Tox)”) to test if the mice would fall off as a model of due to the effects of NT-102; for the “Rotarod(Tox)” results, the “NIT” indicates the number of mice that fell off the rotarod (e.g., for Rotarod(Tox) results, if N/T is 0/8, then zero out of eight mice fell off). […] […] The 44 mA electrical dosage was used since it is considered to be a model to test for medication-resistant epilepsy.

[3] = Rotarod neurotoxicity test in mice; type: in vivo, mouse; settings: for Rotarod (Tox) N/T, mice that fell off: 1 hr, 32 mA study; for Neurotoxicity (Rotorod assay), animals showing toxicity: 5% DMSO: 95% Neobee
[4] = In vivo pharmacokinetics in CD-1 mice; settings: male, CD-1, mouse, plasma, ip, 20 mg/kg, intraperitoneal 20 mg/kg, 5% DMSO: 95% neobee
corneal kindled mouse = assay: Mouse corneal kindled model; type: in vivo; settings: 5% DMSO: 95% Neobee
Experimental: Synthesis for both compounds has been successfully scaled up. The pharmacokinetic (PK) parameters of these two Vitamin K analogs were determined via intravenous, intraperitoneal and oral administration in mice, and preliminary in vitro ADMET parameters were assessed (Table 3). These compounds are Ames-negative, have hepatic stability greater than 1 hour, can be formulated in oral solution and IV injection solution, can be synthesized in greater than 1 mg quantities, and have established brain PK. However, brain tissue binding was high for both compounds (97-98%). Both 3 (NT-181) and 17 (NT-102) have been tested for efficacy in the 6 Hz mouse seizure model at 22 mA and 32 mA, the corneal kindled mouse model, and the rat in vitro spontaneous electrographic bursting model of pharmacoresistance (Table 4). […] Preliminary studies with this new formulation reveal excellent solubility with full protection in the 6 Hz mouse seizure model at 22 mA, and quantification of both compounds (using this new formulation) in this model at 22 mA, 32 mA and 44 mA, is being performed as well as retesting in the corneal kindled model. […] Rat PK assessments will be performed, and seizure protection assessed in rat models in the ADD workflow such as the 6 Hz model and lamotrigine-resistant amygdala kindled mode.

[5] = Mini-Ames test (mutagenicity); type: cell-based; settings: in vitro
Zebrafish larvae = assay: In vivo toxicology in zebrafish larvae
Experimental: Zebrafish larvae, 7 days post-fertilization (dpf), were exposed to compounds at 20, 15, 10, and 5 μM, six larvae per compound. Animals were observed 1, 5, and 24 hr after dosing for overt toxicity (altered survival, morbidity, morphological deformity). Heart rate, behavior, and startle response were monitored at each time point.
Zebrafish (AB strain) were obtained from the Zebrafish International Resource Center (supported by P40 RR012546 from NIH—NCRR). Zebrafish were maintained and crossed according to standard methods (Westerfield, 2000). Fertilized eggs were collected and placed in E3 embryo medium and positioned in an incubator set at 28.5° C. with a 14/10-hr light/dark cycle (Kimmel et al., 1995). To determine the lethal dose of each compound, 96-well plates containing one zebrafish (7 days post-fertilization, dpf) per well in 100 μL of tank water were used. 100 μL of each compound (0.5-15 μM) was added to each well for 12 animals (one row) for a final volume of 200 μL. One row of larvae was used as dimethyl sulfoxide (DMSO)-only controls. […] All zebrafish studies were approved by the Medical University of South Carolina Institutional Animal Care and Use Committee (#180278) and performed in accordance with the guidelines.
Using a 96-well plate, 7 dpf zebrafish were placed one per well with 100 μL of tank water. 100 μL of each compound was then added to each well for 12 animals (one row) for a final volume of 200 μL. One row of zebrafish larvae was used as DMSO only controls.

CC(C)CCNC1=CC(=O)c2ccccc2C1=O [Compound 17, 2-(Isopentylamino)naphthalene-1,4-dione]
Rotarod (Tox) N/T, mice that fell off ([1]; 100 mg/kg i.p.): 0/8
Rotarod (Tox) N/T, mice that fell off ([1]; 200 mg/kg i.p.): 2/8
Rotarod (Tox) N/T, mice that fell off ([1]; 300 mg/kg i.p.): 0/8
Rotarod (Tox) N/T, mice that fell off ([1]; 400 mg/kg i.p.): 1/8
6 Hz 32 mA N/T, mice protected ([2]; 50 mg/kg): 0/8
6 Hz 44 mA N/T, mice protected ([2]; 100 mg/kg i.p.): 0/8
6 Hz 32 mA N/T, mice protected ([2]; 100 mg/kg): 4/8
6 Hz 44 mA N/T, mice protected ([2]; 200 mg/kg i.p.): 2/8
6 Hz 32 mA N/T, mice protected ([2]; 200 mg/kg): 3/8
6 Hz 44 mA N/T, mice protected ([2]; 300 mg/kg i.p.): 4/8
6 Hz 32 mA N/T, mice protected ([2]; 300 mg/kg): 7/8
6 Hz 44 mA N/T, mice protected ([2]; 400 mg/kg i.p.): 8/8
Time of Peak Effect (TPE) ([2]; 6 Hz 44 mA, i.p., 5% DMSO/95% Miglyol 840): 1 h
Number of Animals Protected ([2]; 22 mA, 400 mg/kg): 8/8 at 400 mg/kg
Effective Dose ([2]; 22 mA): 209.05 (25-400) mg/kg
Time of Peak Effect ([2]; 22 mA): 0.25 h
Number of Animals Protected ([2]; 32 mA, 400 mg/kg): 2/8 at 400 mg/kg
ED50 ([2]; Mus musculus, 6 Hz 32 mA): 153 mg/kg
protection against seizures, preliminary testing [2]: displayed protection against seizures with few or no toxic events
Rotarod (Tox) N/T, mice that fell off ([3]; 50 mg/kg): 0/8
Rotarod (Tox) N/T, mice that fell off ([3]; 100 mg/kg): 0/8
Rotarod (Tox) N/T, mice that fell off ([3]; 200 mg/kg): 1/8
Rotarod (Tox) N/T, mice that fell off ([3]; 300 mg/kg): 3/8
Neurotoxicity (Rotorod assay), animals showing toxicity [3]: 0/72 showed toxicity
AUC(0-inf) [4]: 1730 ng·h/mL
Cmax [4]: 320 ng/mL
MRT inf [4]: 4.39 h
Tmax [4]: 1 h
Number of Animals Protected (corneal kindled mouse; 100, 300 and 400 mg/kg): 0/24 at 100, 300 and 400 mg/kg
Mini-Ames test (mutagenicity) [5]: Ames-negative
Mini-Ames test (mutagenicity) ([5]; listed as NT-102): Negative

CC(C)CCOC1=CC(=O)c2ccccc2C1=O [Compound 25, 2-(Isopentyloxy)naphthalene-1,4-dione]
survival (Zebrafish larvae; 24 hr, highest concentrations): ⅔
concentration with no overt toxicity (Zebrafish larvae; AB, zebrafish, in vivo): ≤ 10 µM

CCC#CCNC1=CC(=O)c2ccccc2C1=O [Compound 3, 2-(Pent-2-yn-1-ylamino)naphthalene-1,4-dione]
Number of Animals Protected ([2]; 22 mA, 100 mg/kg): 8/8 at 100 mg/kg
Effective Dose ([2]; 22 mA): 80.60 (25-100) mg/kg
Time of Peak Effect ([2]; 22 mA): 0.5 h
Number of Animals Protected ([2]; 32 mA, 100 mg/kg): 0/7
Number of Animals Protected ([2]; 32 mA, 300 mg/kg): 3/8
Number of Animals Protected ([2]; 44 mA, 100 mg/kg): 0/8 at 100 mg/kg
protection against seizures, preliminary testing [2]: displayed protection against seizures with few or no toxic events
Neurotoxicity (Rotorod assay), animals showing toxicity [3]: 1/71 showed toxicity
concentration lethal/toxic at 24 hr (Zebrafish larvae; 7 dpf larvae, 24 hr): above 5 μM
AUC(0-inf) [4]: 478 ng·h/mL
Cmax [4]: 147 ng/mL
MRT inf [4]: 4.2 h
Tmax [4]: 1 h
Number of Animals Protected (corneal kindled mouse; 300 mg/kg): 0/8 at 300 mg/kg
Mini-Ames test (mutagenicity) [5]: Ames-negative
Mini-Ames test (mutagenicity) ([5]; listed as NT-181): Negative
